# Measured values from PMC2567432 (PLoS ONE, 2008).
# What was measured:
# [1] = test system: JIMT-1 cells; assay: Cellular ATP content (CellTiter-Glo), JIMT-1; assay type: cell-based, human; conditions: JIMT-1, 6 h; curcumin 0–100 µM, MGO 0–1000 µM
# Experimental: Cellular ATP content was determined using the CellTiter-Glo® Luminescent Cell Viability Assay. Data represent the mean±S.D. of independent experiments (n = 12).
# Cell ATP content was determined by means of the CellTiter-Glo® Luminescent Cell Viability Assay according to the manufacturer's instructions (Promega, Madison, USA). […] After 6-h incubation, cells were mixed with test reagents and luminescence was read according to the manufacturer's instructions. A standard curve was prepared from ATP (1 µM to 10 nM) in medium.
# [2] = test system: breast cancer MDA-MB-231 cells; assay: Cell proliferation WST-1 assay, MDA-MB-231; assay type: cell-based, human; conditions: MDA-MB-231, 24 h
# Experimental: Figure 3 Growth inhibition of different tumor cell lines by polyphenols. […] Following 24-h incubation, cell proliferation was evaluated using the WST-1 assay.
# Tumor cells were cultured in RPMI medium containing 10% fetal calf serum (RPMI-FCS) (PC-3, JIMT-1, MDA-MD 231) or in DMEM-FCS (astrocytoma 1321N1 cells) containing penicillin/streptomycin (100 U penicillin/ml; 100 µg streptomycin/ml) at 37°C/5% CO2. Cytosolic protein extracts of tumor cells were prepared using extraction buffer composed of 25 mM Tris, 2 mM EDTA, 10% Glycerol, 1% Triton ×100, 2 mM DTT, 1mM PMSF, pH. 7.0 containing 0.3% protease inhibitor cocktail. Protein content was determined according to Bradford. Specific activity of enzymes analyzed in cell extracts was expressed as U/mg protein.
# Cell proliferation/vitality of tumor cells (96-well plates; 5000 cells/well) and primary human hepatocytes (24-well plates; 0.25×10^6 cells/well) was assayed using the WST-1 assay according to manufacturer's instructions. Trypan blue exclusion was performed by staining cells with 0.4% aqueous trypan blue solution according to the manufacturer's instructions.
# [3] = test system: LDH; assay: LDH activity measurement, interference check; assay type: biochemical; conditions: spectrophotometric, 340 nm
# Experimental: LDH activity was spectrophotometrically assayed in the cytosolic extract or in the of cell cultures by adding aliquots to 1 ml reaction buffer (50 mM Na2HPO4, pH 7.0, 0.15 mM NADH, and 0.3 mM pyruvate). Enzyme activity was recorded at 340 nm.
smiles,measurement,setting,value
"COc1cc(C=CC(=O)CC(=O)C=Cc2ccc(O)c(OC)c2)ccc1O [curcumin, 1,7-bis(4-hydroxy-3-methoxyphenyl)-1,6-heptadiene-3,5-dione]",cellular ATP content,[1],decreased cellular ATP in a concentration-dependent manner
same,concentration giving strong anti-proliferative effects,[2],above 50 µM
same,effect on LDH enzyme activity in the assay,[3],not affected
